ChEMBL document CHEMBL1201862, “PubChem BioAssay data set” (2004)
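Each compound was tested at five concentrations against cells in 96-well plates for 48 hours. Here, GI50 denotes the concentration required for 50% inhibition of growth.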 The source made the active and inactive calls. Rule as the data show it: active = GI50 up to about 1.1 µM and inactive = higher.

What was measured:
Assay in all cases: DTP human tumour cell line panel, 48 h
[1] = tested on: A498
[2] = tested on: A549
[3] = tested on: CAKI-1
[4] = tested on: EKVX
[5] = tested on: HCT-15
[6] = tested on: HL-60
[7] = tested on: K562
[8] = tested on: LOX IMVI
[9] = tested on: Malme-3M
[10] = tested on: NCI-H23
[11] = tested on: PC-3
[12] = tested on: RXF 393
[13] = tested on: SF-295
[14] = tested on: SK-MEL-28
[15] = tested on: SK-MEL-5
[16] = tested on: SK-OV-3
[17] = tested on: SN12C
[18] = tested on: SR
[19] = tested on: TK-10
[20] = tested on: UO-31

CC(=O)OC1CC(n2cc(F)c(=O)[nH]c2=O)OC1CO (stereo not given)
GI50 [1]: 0.0693 µM (active)
GI50 [2]: 0.143 µM (active)
GI50 [3]: 0.818 µM (active)
GI50 [4]: 20 µM (inactive)
GI50 [5]: 16.1 µM
GI50 [6]: 4.31 µM (inactive)
GI50 [7]: 15.1 µM (inactive)
GI50 [8]: 0.324 µM (active)
GI50 [9]: 18 µM (inactive)
GI50 [10]: 2 µM (inactive)
GI50 [11]: 16.9 µM (inactive)
GI50 [12]: 22.2 µM (inactive)
GI50 [13]: 0.209 µM (active)
GI50 [14]: 15.6 µM (inactive)
GI50 [15]: 1.49 µM (inactive)
GI50 [16]: 61.1 µM (inactive)
GI50 [17]: 1.23 µM (inactive)
GI50 [18]: 0.604 µM (active)
GI50 [19]: 15.9 µM (inactive)
GI50 [20]: 0.635 µM (active)

CC(=O)NC1(C)CCC(C(C)(C)NC(C)=O)CC1 (stereo not given)
GI50 [1]: > 100 µM (inactive)
GI50 [2]: > 100 µM (inactive)
GI50 [3]: > 100 µM (inactive)
GI50 [4]: > 100 µM (inactive)
GI50 [5]: > 100 µM
GI50 [6]: > 100 µM (inactive)
GI50 [7]: > 100 µM (inactive)
GI50 [8]: > 100 µM (inactive)
GI50 [9]: > 100 µM (inactive)
GI50 [10]: > 100 µM (inactive)
GI50 [11]: > 100 µM (inactive)
GI50 [12]: > 100 µM (inactive)
GI50 [13]: > 100 µM (inactive)
GI50 [14]: > 100 µM (inactive)
GI50 [15]: > 100 µM (inactive)
GI50 [16]: > 100 µM (inactive)
GI50 [17]: > 100 µM (inactive)
GI50 [18]: > 100 µM (inactive)
GI50 [19]: > 100 µM (inactive)
GI50 [20]: > 100 µM (inactive)

C[N+](C)(C)CC(=O)N/N=C\c1c(O)ccc2ccccc12
GI50 [1]: 29.5 µM (inactive)
GI50 [2]: > 100 µM (inactive)
GI50 [3]: 40.9 µM (inactive)
GI50 [4]: 35.7 µM (inactive)
GI50 [5]: 27.7 µM
GI50 [6]: 14.2 µM (inactive)
GI50 [7]: 31.9 µM (inactive)
GI50 [8]: 32.7 µM (inactive)
GI50 [9]: 11.9 µM (inactive)
GI50 [10]: 36 µM (inactive)
GI50 [11]: 37.6 µM (inactive)
GI50 [12]: 20.9 µM (inactive)
GI50 [13]: 46.1 µM (inactive)
GI50 [14]: 48.2 µM (inactive)
GI50 [15]: 16.2 µM (inactive)
GI50 [16]: 34.8 µM (inactive)
GI50 [17]: 32.2 µM (inactive)
GI50 [18]: 33.2 µM (inactive)
GI50 [19]: 28.2 µM (inactive)
GI50 [20]: 33.3 µM (inactive)

O=C(Nc1sccc1S(=O)(=O)c1ccc(Cl)cc1)c1ccc(Cl)cc1
GI50 [1]: > 100 µM (inactive)
GI50 [2]: 94.8 µM (inactive)
GI50 [3]: 80.4 µM (inactive)
GI50 [4]: 31 µM (inactive)
GI50 [5]: > 100 µM
GI50 [6]: > 100 µM (inactive)
GI50 [7]: > 100 µM (inactive)
GI50 [8]: > 100 µM (inactive)
GI50 [9]: 50.6 µM (inactive)
GI50 [10]: 68.5 µM (inactive)
GI50 [11]: 25.9 µM (inactive)
GI50 [12]: 65.6 µM (inactive)
GI50 [13]: 34 µM (inactive)
GI50 [14]: > 100 µM (inactive)
GI50 [15]: 74.3 µM (inactive)
GI50 [16]: 52.6 µM (inactive)
GI50 [17]: > 100 µM (inactive)
GI50 [18]: > 100 µM (inactive)
GI50 [19]: 50.8 µM (inactive)
GI50 [20]: 86.3 µM (inactive)

N=C(N)NC(=N)Nc1ccc(S(N)(=O)=O)cc1
GI50 [1]: > 100 µM (inactive)
GI50 [2]: > 100 µM (inactive)
GI50 [3]: > 100 µM (inactive)
GI50 [4]: > 100 µM (inactive)
GI50 [5]: > 100 µM
GI50 [6]: > 100 µM (inactive)
GI50 [7]: > 100 µM (inactive)
GI50 [8]: > 100 µM (inactive)
GI50 [9]: > 100 µM (inactive)
GI50 [10]: > 100 µM (inactive)
GI50 [11]: > 100 µM (inactive)
GI50 [12]: > 100 µM (inactive)
GI50 [13]: > 100 µM (inactive)
GI50 [14]: > 100 µM (inactive)
GI50 [15]: > 100 µM (inactive)
GI50 [16]: > 100 µM (inactive)
GI50 [17]: > 100 µM (inactive)
GI50 [18]: > 100 µM (inactive)
GI50 [19]: > 100 µM (inactive)
GI50 [20]: > 100 µM (inactive)

COc1ccc(C(C)c2cc3c(cc2OC)OCO3)cc1 (stereo not given)
GI50 [1]: 0.646 µM (active)
GI50 [2]: 0.218 µM (active)
GI50 [3]: 0.107 µM (active)
GI50 [4]: 17.4 µM (inactive)
GI50 [5]: 0.0723 µM
GI50 [6]: 0.0802 µM (active)
GI50 [7]: 0.0389 µM (active)
GI50 [8]: 0.205 µM (active)
GI50 [9]: 0.0951 µM (active)
GI50 [10]: 0.169 µM (active)
GI50 [11]: 0.0715 µM (active)
GI50 [12]: 0.264 µM (active)
GI50 [13]: 0.0611 µM (active)
GI50 [14]: 2.33 µM (inactive)
GI50 [15]: 0.0659 µM (active)
GI50 [16]: 0.2 µM (active)
GI50 [17]: 0.378 µM (active)
GI50 [18]: 0.881 µM (active)
GI50 [19]: 8.95 µM (inactive)
GI50 [20]: 0.272 µM (active)

S=C(S)NCCN1CCNCC1
GI50 [1]: > 100 µM (inactive)
GI50 [2]: > 100 µM (inactive)
GI50 [3]: 39.5 µM (inactive)
GI50 [4]: 57.1 µM (inactive)
GI50 [5]: 47.8 µM
GI50 [6]: < 0.01 µM (active)
GI50 [7]: 24.4 µM (inactive)
GI50 [8]: 40.1 µM (inactive)
GI50 [9]: 25.4 µM (inactive)
GI50 [10]: > 100 µM (inactive)
GI50 [11]: 34.3 µM (inactive)
GI50 [12]: 19.8 µM (inactive)
GI50 [13]: > 100 µM (inactive)
GI50 [14]: > 100 µM (inactive)
GI50 [15]: 52.1 µM (inactive)
GI50 [16]: > 100 µM (inactive)
GI50 [17]: 49.2 µM (inactive)
GI50 [18]: 24.5 µM (inactive)
GI50 [19]: 20.8 µM (inactive)
GI50 [20]: 29.7 µM (inactive)

CCOC(=O)c1ccc(-c2cccs2)[nH]1
GI50 [1]: > 55.5 µM (inactive)
GI50 [2]: > 62.5 µM (inactive)
GI50 [3]: > 92.5 µM (inactive)
GI50 [4]: 38.8 µM (inactive)
GI50 [5]: 26.9 µM
GI50 [6]: 38.8 µM (inactive)
GI50 [7]: 71.3 µM (inactive)
GI50 [8]: > 100 µM (inactive)
GI50 [9]: 63.4 µM (inactive)
GI50 [10]: 67.5 µM (inactive)
GI50 [11]: 72.6 µM (inactive)
GI50 [12]: > 66.4 µM (inactive)
GI50 [13]: > 100 µM (inactive)
GI50 [14]: > 80.5 µM (inactive)
GI50 [15]: 30.8 µM (inactive)
GI50 [16]: > 62.7 µM (inactive)
GI50 [17]: > 100 µM (inactive)
GI50 [18]: 54.7 µM (inactive)
GI50 [19]: > 65.3 µM (inactive)
GI50 [20]: 50 µM (inactive)

C=C1C(=O)O[C@@H]2C[C@@H]3[C@]4(CC[C@]5(C)[C@@H]([C@H](C)CC/C=C(\C)C=O)CC[C@@]35C)C[C@]4(CCC(=O)OC)[C@H]12
GI50 [1]: 2.79 µM (inactive)
GI50 [2]: 6.64 µM (inactive)
GI50 [3]: 3.26 µM (inactive)
GI50 [4]: 2.99 µM (inactive)
GI50 [5]: 1.78 µM
GI50 [6]: 0.367 µM (active)
GI50 [7]: 0.845 µM (active)
GI50 [8]: 1.28 µM (inactive)
GI50 [9]: 1.59 µM (inactive)
GI50 [10]: 1.84 µM (inactive)
GI50 [11]: 1.9 µM (inactive)
GI50 [12]: 1.89 µM (inactive)
GI50 [13]: 2.14 µM (inactive)
GI50 [14]: 2 µM (inactive)
GI50 [15]: 0.83 µM (active)
GI50 [16]: 3.52 µM (inactive)
GI50 [17]: 1.9 µM (inactive)
GI50 [18]: 0.993 µM (active)
GI50 [19]: 2.46 µM (inactive)
GI50 [20]: 2 µM (inactive)

CC1=C2O[C@]3(O)C=C2C(=C(O)C1=O)[C@@H]1O[C@H](CC[C@H](C)/C=C(\C)C[C@@H](C)C[C@@H]3C)[C@H](C)[C@H](O)[C@H]1C [KENDOMYCIN]
GI50 [1]: 1.58 µM (inactive)
GI50 [2]: 0.982 µM (active)
GI50 [3]: 0.541 µM (active)
GI50 [4]: 0.356 µM (active)
GI50 [5]: 0.124 µM
GI50 [6]: 0.145 µM (active)
GI50 [7]: 0.166 µM (active)
GI50 [8]: 0.24 µM (active)
GI50 [9]: 0.194 µM (active)
GI50 [10]: 0.316 µM (active)
GI50 [11]: 0.269 µM (active)
GI50 [12]: 0.161 µM (active)
GI50 [13]: 1.22 µM (inactive)
GI50 [14]: 0.229 µM (active)
GI50 [15]: 0.498 µM (active)
GI50 [16]: 1.12 µM (active)
GI50 [17]: 0.811 µM (active)
GI50 [18]: 0.135 µM (active)
GI50 [19]: 0.155 µM (active)
GI50 [20]: 0.193 µM (active)

COC(=O)c1ccc2c(c1)C(NC(C)=O)CCc1cc(OC)c(OC)c(OC)c1-2 (stereo not given)
GI50 [1]: 0.0133 µM (active)
GI50 [2]: 0.018 µM (active)
GI50 [3]: 0.0177 µM (active)
GI50 [4]: 4.19 µM (inactive)
GI50 [5]: 0.0366 µM
GI50 [6]: 0.0136 µM (active)
GI50 [7]: 0.0128 µM (active)
GI50 [8]: 0.0149 µM (active)
GI50 [9]: 0.015 µM (active)
GI50 [10]: 0.0136 µM (active)
GI50 [11]: < 0.0127 µM (active)
GI50 [12]: 0.0139 µM (active)
GI50 [13]: 0.0117 µM (active)
GI50 [14]: 0.0265 µM (active)
GI50 [15]: 0.013 µM (active)
GI50 [16]: 0.0188 µM (active)
GI50 [17]: 0.0223 µM (active)
GI50 [18]: 0.0123 µM (active)
GI50 [19]: 16.9 µM (inactive)
GI50 [20]: 0.0721 µM (active)
